In PMC9738531, “Cholinesterases Inhibition, Anticancer and Antioxidant Activity of Novel Benzoxazole and Naphthoxazole Analogs” (Molecules, 2022):
Read-outs that look alike come from different tables or passages of the source.

Experiments:
[1] = test system: A549 (non-small cell lung carcinoma) cells; assay: SRB antiproliferative assay, A549; assay type: cell-based, human; details: means ± SD
Protocol: (§1) The compounds were also evaluated for their antiproliferative potencies against human cancer cell lines as the potential anticancer agents. […]. The results are presented in Table 3 and expressed as IC50 (μM). In that score, the highest potency was shown by the analogs from the naphtho[1,2-d][1,3]oxazole group 8–10, particularly by derivative 10 with a chlorine atom on the benzenediol moiety.
(§2) In the antiproliferative assay in vitro, the following human cell lines were applied: T47D (breast cancer), SW707 (rectal adenocarcinoma), A549 (non-small cell lung carcinoma) from the American Type Culture Collection (Rockville, MD, USA) and HCV29T (bladder cancer) from the Fibiger Institute, Copenhagen, Denmark. Cytotoxicity assay was performed after 72 h exposure of the cultured cells at the concentration ranging from 0.1 to 100 μg/mL of the tested agents. The SRB test measuring the cell proliferation inhibition in the in vitro culture was applied. The cellular material fixed with TCA was stained with 0.4% sulforhodamine B (Chemie GmbH, Steinheim, Germany) dissolved in 1% acetic acid (POCh, Gliwice, Poland) for 30 min.

[2] = test system: T47D (breast cancer) cells; assay: SRB antiproliferative assay, T47D; assay type: cell-based, human; details: 72 h, means ± SD
Protocol: as §1, §2

[3] = DPPH free radical scavenging activity; details: concentration scavenging 50% of DPPH radicals; means ± SD of three experiments
Protocol: To evaluate the antioxidant potential of compounds as radical scavengers versus the stable free radicals, 2,2-diphenylpicrylhydrazyl (DPPH) was applied. Antioxidant properties were expressed as the IC50 value—the concentration of compound required for scavenging 50% of DPPH radicals. […].
The DPPH free radical scavenging activities of the synthesized compounds were measured by DPPH, according to the method described in the paper. The free radical scavenging activity was measured as a decrease in the absorbance of DPPH, and calculated using the equation:DPPH scavenging effects (%) = […] [(A0 − A1)/A0]∙100](2) where: A0 was the absorbance of the control reaction and A1 absorbance in the presence of the sample of the analysed compounds [62]. The IC50 values were calculated as the concentration of compound required for scavenging 50% of DPPH [45]. Results were presented as the mean ± standard deviation (SD). The antioxidant activity data were compared using the one-way ANOVA test at the significance level 5%.

[4] = test system: SW707 (rectal adenocarcinoma) cells; assay: SRB antiproliferative assay, SW707; assay type: cell-based, human; details: means ± SD, read-out: IC50 SW 707
Protocol: as §1, §2

[5] = test system: HCV29T (bladder cancer) cells; assay: SRB antiproliferative assay, HCV29T; assay type: cell-based, human; details: 72 h, means ± SD, read-out: IC50 HCV 29T
Protocol: as §1, §2

[6] = Lipophilicity by RP-18 HPLC chromatography; assay type: physicochemical; details: for -S (slope of log k vs MeOH fraction): MeOH/acetate buffer, pH 7.4; for log kw: pH 7.4, extrapolation to pure water as mobile phase
From the text: The lipophilicity parameter was estimated for the tested compounds as it is an important feature that influences the pharmacokinetic properties of bioactive compounds [46, 47]. Lipophilicity also determines some biological activities, such as the antiproliferative or fungistatic activity. For lipophilicity determination, reversed-phase column chromatography was used, with the octadecyl C-18 stationary phase and MeOH as the organic modifier in the isocratic conditions.
HPLC measurements were performed using a liquid chromatograph (Knauer, Berlin, Germany) with a dual pump and a UV-visible detector. The measurements were made at 254 or 320 nm at room temperature. A Eurosil Bioselect C18 (5 μm, 300 × 4.6 mm) column was applied as the stationary phase. The mobile phase consisted of different volume mixtures of 20 mM acetate buffer as the aqueous phase, and MeOH as the organic modifier (pH 7.4). The different concentrations of MeOH from 0.5 to 0.90 (v/v) range was used, depending on the structure of the compound at 0.05 intervals. The flow rate was 1 mL/min. Retention time of an unretained solute (t0) was determined by the injection of a small amount of acetone dissolved in water.
Regular changes in the retention coefficients of compounds in a function of the organic modifier MeOH content in the mobile phase are described by the Soczewiński–Wachtmeister equation [56]:log k = log kw + S φ(1)
φ—the volume fraction of organic modifier (MeOH) in the mobile phase; log kw—the intercept; S—slope of the regression curve. Log kw refers to the retention parameter of a compound with pure water as the mobile phase.

[7] = target: T1, Acetylcholinesterase (AChE, E.C. 3.1.1.7, from human erythrocytes) (Homo sapiens, UniProt P22303); assay: biochemical; details: for Selectivity for AChE: IC50 (BChE)/IC50 (AChE); for IC50: means ± SEM of three independent experiments
T1 construct: Acetylcholinesterase (AChE, E.C. 3.1.1.7, from human erythrocytes); purchased Sigma-Aldrich (Steinheim, Germany); host or cells: human erythrocytes (natural source)
T1 sequence (P22303 other isoform, or with tags, fused parts or gaps): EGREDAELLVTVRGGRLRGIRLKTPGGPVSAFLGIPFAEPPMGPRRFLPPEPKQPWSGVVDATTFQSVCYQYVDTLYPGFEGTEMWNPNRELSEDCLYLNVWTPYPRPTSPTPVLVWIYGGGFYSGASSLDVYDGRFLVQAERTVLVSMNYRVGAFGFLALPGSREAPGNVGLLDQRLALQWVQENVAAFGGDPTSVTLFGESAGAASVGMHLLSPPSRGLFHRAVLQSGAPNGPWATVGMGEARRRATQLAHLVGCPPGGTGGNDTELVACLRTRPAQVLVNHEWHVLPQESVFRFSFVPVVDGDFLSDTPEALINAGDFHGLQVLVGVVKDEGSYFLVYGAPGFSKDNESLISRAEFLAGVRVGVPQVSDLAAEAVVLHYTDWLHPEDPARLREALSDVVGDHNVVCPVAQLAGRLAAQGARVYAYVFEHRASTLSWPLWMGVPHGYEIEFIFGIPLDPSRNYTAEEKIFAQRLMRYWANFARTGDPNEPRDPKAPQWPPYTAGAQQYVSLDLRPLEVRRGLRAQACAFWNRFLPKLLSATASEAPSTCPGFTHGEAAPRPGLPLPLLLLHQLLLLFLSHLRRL
Protocol: (§3) The compounds were evaluated by an in vitro assay as the AChE and BChE inhibitors. The studies were carried out using the modified Ellman’s method. […] The inhibitory activities against AChE and BChE of the newly-synthesized compounds were determined exactly, according to a previous paper. […] The samples were analysed in triplicate. IC50 values were designated from a dose–response curve obtained by plotting the percentage of inhibition versus the log concentration, using GraphPad Prism 8 software. […] AChE and BChE activity data were compared using the Kruskal–Wallis test at the significance level of 1%.

[8] = target: T2, butyrylcholinesterase (BChE, E.C. 3.1.1.8, from equine serum) (Equus caballus, UniProt P81908); assay: biochemical; details: means ± SEM of three independent experiments
T2 construct: butyrylcholinesterase (BChE, E.C. 3.1.1.8, from equine serum); purchased Sigma-Aldrich (Steinheim, Germany); host or cells: equine serum (natural source)
T2 sequence (P81908 whole entry): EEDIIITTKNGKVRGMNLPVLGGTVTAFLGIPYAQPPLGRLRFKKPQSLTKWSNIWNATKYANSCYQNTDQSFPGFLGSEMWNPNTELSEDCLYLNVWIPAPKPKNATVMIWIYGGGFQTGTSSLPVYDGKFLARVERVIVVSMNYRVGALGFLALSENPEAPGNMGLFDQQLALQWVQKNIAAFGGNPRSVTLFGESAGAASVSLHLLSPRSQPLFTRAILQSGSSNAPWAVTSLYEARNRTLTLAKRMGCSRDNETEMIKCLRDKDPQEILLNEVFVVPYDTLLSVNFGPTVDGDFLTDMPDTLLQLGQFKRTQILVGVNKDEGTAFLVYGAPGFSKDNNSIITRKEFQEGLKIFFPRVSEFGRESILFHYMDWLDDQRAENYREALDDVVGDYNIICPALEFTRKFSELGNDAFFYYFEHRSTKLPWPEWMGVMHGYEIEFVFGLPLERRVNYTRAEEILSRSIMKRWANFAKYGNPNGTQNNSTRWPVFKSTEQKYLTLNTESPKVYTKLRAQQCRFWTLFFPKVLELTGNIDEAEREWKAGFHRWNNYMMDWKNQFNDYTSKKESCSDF
Protocol: as §3

[9] = test system: normal keratinocytes HaCaT cells; assay: LDH cytotoxicity assay, HaCaT normal cells; assay type: cell-based, human; details: HaCaT, whole tested range 0.1–25 µM, 72 h
Protocol: (§4) In view of the observed antiproliferative activity, the influence of the tested compounds on the normal human cells—normal mammary gland epiterial cells of the MCF10A line and the normal keratenocytes HaCaT line—was examined (Figure 5). The cells were treated with compounds 3, 8 and 10 in the concentration range from 0.1 µM to 25 µM for 72 h, after which the cell viability was tested by analysis of the level of released lactate dehydrogenase (LDH method).
(§5) Normal human epithelial cells from the mammary gland, MCF10A (a generous gift from our colleague Dr. Saraswati Sukumar (JHU), who obtained them recently from ATCC), and normal human keratinocytes HaCaT (also obtained from ATCC), were cultured in DMEM/F12 medium (Gibco), supplemented with 5% horse serum (Gibco), 5% FBS (Sigma-Aldrich Chemie GmbH, Taufkirchen, Germany ), penicillin streptomycin solution (1×) (Gibco) at 37 °C and 5% CO2. The cells were subcultured twice a week.
(§6) Human epiterial breast cells MCF10A and human keratinocytes HaCaT (1 × 10^4/mL) cells were placed on 96-well plates (Nunc, Roskilde, Denmark). The next day, the cells were exposed to increasing concentrations of compounds 3, 8 and 10 in 0.1, 0.25, 0.5, 1, 2.5, 5, 10 and 25 μM in fresh culture medium. Cytotoxicity was estimated based on the measurements of cytoplasmic lactate dehydrogenase (LDH) activity released from the damaged cells after the 72 h exposure to the compounds. The LDH assay was performed according to the manufacturer’s instructions (Cytotoxicity Detection KitPLUS LDH, Roche, Mannheim, Germany). Absorbance was measured using a microplate at two different wavelengths: “measurement wavelength” (492 nm) and “reference wavelength” (690 nm), using a microplate.

AChE = target: T3, AChE (Homo sapiens, UniProt P22303); assay: Kinetic study of AChE inhibition (Lineweaver-Burk); assay type: biochemical; details: for type of AChE inhibition: Lineweaver-Burk plot
T3 construct: Acetylcholinesterase (AChE, E.C. 3.1.1.7, from human erythrocytes); purchased Sigma-Aldrich (Steinheim, Germany); host or cells: human erythrocytes (natural source)
T3 sequence (P22303 other isoform, or with tags, fused parts or gaps): as the sequence (P22303 other isoform, or with tags, fused parts or gaps) above
Protocol: Ellman’s method was used to prepare a kinetic characterization of AChE inhibition for compound 8. […]. The tested medium contained DTNB solution (0.4 mg/mL), AChE solution (2 U/mL), solution of the examined compound 8, and different concentrations of the ATCh iodide substrate solution (S). Absorbance was detected at 412 nm at room temperature after 10 min. The obtained data were calculated and presented on the Lineweaver–Burk plot. The determined the Michaelis–Menten constant (KM) and the maximum velocity of the enzyme (Vmax) values were used to define the type of enzyme inhibition.

[10] = test system: normal mammary gland MCF10A cells; assay: LDH cytotoxicity assay, MCF10A normal cells; assay type: cell-based, human; details: 0.1–5 µM, 72 h
Protocol: as §4, §5, §6

Structure (SMILES) | IC50 ([1]; Homo sapiens, A549, 72 h) | IC50 ([2]; Homo sapiens, T47D) | IC50 [3] | IC50 ([4]; Homo sapiens, SW707, 72 h) | IC50 ([5]; Homo sapiens, HCV29T) | -S (slope of log k vs MeOH fraction) [6] | log kw [6] | Selectivity for AChE [7] | IC50 [7] | IC50 [8] | also measured
COC(=O)c1ccc2nc(-c3cc(Cl)c(O)cc3O)oc2c1 [Compound 6, Methyl 2-(5-chloro-2,4-dihydroxyphenyl)-1,3-benzoxazole-6-carboxylate] | 10500 ± 5610 nM | 6610 ± 2480 nM | 861 ± 71 nM | 6040 ± 890 nM | 7540 ± 3150 nM | 5.477 | 4.223 | 0.394 | 831 ± 14 nM | 328 ± 27 nM | –
COC(=O)c1ccc2nc(-c3ccc(O)c(O)c3O)oc2c1 [Compound 7, Methyl 2-(2,3,4-trihydroxyphenyl)-1,3-benzoxazole-6-carboxylate] | – | – | 887 ± 64 nM | – | 23300 ± 4070 nM | 4.811 | 2.800 | 3.644 | 183 ± 31 nM | 667 ± 4 nM | –
Oc1ccc(-c2nc3c(ccc4ccccc43)o2)c(O)c1 [Compound 8, 4-(Naphtho[1,2-d][1,3]oxazol-2-yl)benzene-1,3-diol] | 4170 ± 190 nM | 2860 ± 180 nM | 452 ± 31 nM | 3350 ± 160 nM | 2500 ± 1880 nM | 4.263 | 3.936 | – | 58 ± 10 nM | 981 ± 15 nM | toxicity to keratinocytes (LDH release) [9]: toxic; type of AChE inhibition (AChE): mixed-type inhibitor; type of AChE inhibition (AChE; listed as 4-(Naphtho[1,2-d][1,3]oxazol-2-yl)benzene-1,3-diol): mixed-type inhibition; Vmax (AChE; compound 8 concentration 25 nM): 0.031 A/min; Vmax (AChE; compound 8 concentration 50 nM): 0.023 A/min; Vmax (AChE; compound 8 concentration 75 nM): 0.021 A/min; influence on mammary cells viability (LDH) [10]: no influence
CCc1cc(-c2nc3c(ccc4ccccc43)o2)c(O)cc1O [Compound 9, 4-Ethyl-6-(naphtho[1,2-d][1,3]oxazol-2-yl)benzene-1,3-diol] | 4940 ± 690 nM | 7280 ± 2500 nM | 214 ± 24 nM | 8580 ± 3400 nM | 3720 ± 360 nM | 5.395 | 4.901 | 1.971 | 516 ± 9 nM | 1020 ± 32 nM | –
N.N.[Cl][Pt][Cl] [cisplatin, reference compound] | – | – | – | – | – | – | – | – | – | – | IC50 ([1]; 72 h): 3070 ± 450 nM; IC50 [2]: 4010 ± 1580 nM; IC50 ([4]; 72 h): 3650 ± 760 nM; IC50 [5]: 2400 ± 320 nM
O=c1c(O)c(-c2ccc(O)c(O)c2)oc2cc(O)cc(O)c12 [quercetin, reference compound] | – | – | 32 ± 1 nM | – | – | – | – | – | – | – | –
